Source: ChEMBL document CHEMBL1148249, “Design and synthesis of bridged gamma-lactams as analogues of beta-lactam antibiotics” (Bioorg Med Chem Lett, 2004)
Values after ≈ are worked out from the molar mass of the structure shown. Active and inactive are the calls of the source. The calls are words filed in the database; no cut-off is given here.

Tests used:
[1] = test system: Enterobacter cloacae; test: Minimum inhibitory concentration against Enterobacter cloacae; 40-80 ug/mL; type: functional
[2] = Antibacterial activity expressed as binding to PBP 1a of Pseudomonas aeruginosa
[3] = Antibacterial activity expressed as binding to PBP 1b of Pseudomonas aeruginosa
[4] = Antibacterial activity expressed as binding to PBP 2 of Pseudomonas aeruginosa
[5] = Antibacterial activity expressed as binding to PBP 3 of Pseudomonas aeruginosa
[6] = Antibacterial activity expressed as binding to PBP 4 of Pseudomonas aeruginosa
[7] = Antibacterial activity expressed as binding to PBP 5 of Pseudomonas aeruginosa
[8] = test system: Pseudomonas aeruginosa; test: Minimum inhibitory concentration against Pseudomonas aeruginosa; 40-80 ug/mL; type: functional
[9] = test system: Serratia marcescens; test: Minimum inhibitory concentration against Serratia marcescens; 40-80 ug/mL; type: functional
[10] = test system: Staphylococcus aureus; test: Minimum inhibitory concentration against Staphylococcus aureus; No activity; type: functional, organism-based
[11] = Time dependent inhibition of hydrolysis of nitrocefin after 5 min pre-incubation with TEM-1 beta-lactamase (class 1)
[12] = Half life at a pH of 9 and temperature 37 degree; type: ADME; conditions: pH 9
[13] = Inhibition of hydrolysis of nitrocefin after 5 min pre-incubation with TEM-1 beta-lactamase (class 1)
[14] = test system: Staphylococcus aureus; test: Minimum inhibitory concentration against Staphylococcus aureus;; type: functional

SMILES | MIC [10] | IC50 [11] [µM] | half-life [12] [min] | IC50 [13] [µM] | other results
CC[C@@H]1C(=O)N2C[C@@H]1CC(OC)=C2C(=O)O | inactive | 700 | 25 | – | MIC [1]: 80 µg/mL (≈ 355 µM); IC50 [2]: > 50 µM; IC50 [3]: > 50 µM; IC50 [4]: 50 µM; IC50 [5]: 5 µM; IC50 [6]: 5 µM; IC50 [7]: 50 µM; MIC [8]: 80 µg/mL (≈ 355 µM); MIC [9]: 80 µg/mL (≈ 355 µM)
COC1=CC2CC(=O)N(C2)C1C(=O)OCc1ccc([N+](=O)[O-])cc1 (stereo unspecified) | inactive | – | – | 45 | –
CC(O)[C@H]1C(=O)N2C(C(=O)O)=C(SCCNC=N)C[C@H]12 (single isomer, unassigned) [IMIPENEM ANHYDROUS] | – | – | – | – | IC50 [2]: 0.3 µM; IC50 [3]: 0.6 µM; IC50 [4]: < 0.6 µM; IC50 [6]: < 0.1 µM; IC50 [7]: 2.3 µM
CC[C@@H]1C(=O)N2C[C@@H]1CC(OC)=C2C(=O)OCc1ccc([N+](=O)[O-])cc1 | inactive | – | 42 | > 1000 | –
COC1=C[C@@H]2CC(=O)N(C2)C1C(=O)O (stereo partly specified) | – | – | 14 | 280 | MIC [1]: 80 µg/mL (≈ 406 µM); MIC [8]: 80 µg/mL (≈ 406 µM); MIC [9]: 80 µg/mL (≈ 406 µM); MIC [14]: 80 µg/mL (≈ 406 µM)
COC1=C(C(=O)OCc2ccc([N+](=O)[O-])cc2)N2C[C@@H](CC2=O)C1 | inactive | – | 6 | 54 | –
CC[C@@H]1C(=O)N2C[C@@H]1C=C(OC)C2C(=O)OCc1ccc([N+](=O)[O-])cc1 (stereo partly specified) | inactive | 420 | 55 | – | –
O=C(O)[C@H]1/C(=C/CO)O[C@@H]2CC(=O)N21 [CLAVULANIC ACID] | – | 0.065 | 120 | – | –
